These results are taken from publication PMC8426295, “Cytotoxic and radiosensitising effects of a novel thioredoxin reductase inhibitor in breast cancer” (Investigational New Drugs, 2021).

SMILES strings stand for the structures.

On the set-up of data set [1]: method as in PMID 27217046. Conditions: clinical; cited from earlier work.
On the set-up of data set [2]: method as in PMID 22509926. The following applies: cited from earlier work.
A further data set concerns the target T1, TrxR (Homo sapiens, UniProt Q16881).
T1 sequence (Q16881 1-649): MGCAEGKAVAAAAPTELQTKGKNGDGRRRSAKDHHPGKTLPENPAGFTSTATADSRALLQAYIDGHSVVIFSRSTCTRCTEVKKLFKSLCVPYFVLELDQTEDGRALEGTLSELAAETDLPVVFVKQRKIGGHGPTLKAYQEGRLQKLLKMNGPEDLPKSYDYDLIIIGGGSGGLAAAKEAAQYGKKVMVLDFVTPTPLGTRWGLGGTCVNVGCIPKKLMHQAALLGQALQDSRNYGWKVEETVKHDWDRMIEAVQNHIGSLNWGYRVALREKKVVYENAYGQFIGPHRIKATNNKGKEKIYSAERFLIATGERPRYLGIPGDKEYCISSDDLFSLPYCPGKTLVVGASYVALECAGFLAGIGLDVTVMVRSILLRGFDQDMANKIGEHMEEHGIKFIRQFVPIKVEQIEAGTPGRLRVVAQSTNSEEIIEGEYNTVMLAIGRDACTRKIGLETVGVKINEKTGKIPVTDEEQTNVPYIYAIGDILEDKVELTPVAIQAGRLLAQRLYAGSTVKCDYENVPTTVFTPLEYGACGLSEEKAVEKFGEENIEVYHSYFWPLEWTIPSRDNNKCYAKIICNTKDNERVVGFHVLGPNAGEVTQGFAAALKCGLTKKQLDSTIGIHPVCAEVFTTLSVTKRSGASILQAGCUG
In words: Thioredoxin reductase activity assay (insulin reduction) on lysates of drug-treated breast cancer cells. Type of data set: cell-based. Conditions: 1000 nM; for inhibition of TrxR activity: 48 h. Here is the method: TrxR enzyme activity was assessed using an insulin reduction assay. Briefly, 2 × 10^6 cells were seeded, in triplicate, in 75c m^2 tissue culture flasks. After 24 h, sub-confluent cells were treated with either IQ9 (0–1000 nM) or 1000 nM auranofin (as a positive control) for 4 or 48 h, then trypsinised, washed, and resuspended in M-PER™ Mammalian Protein Extraction Reagent (ThermoFisher, USA) supplemented with 1X Halt protease inhibitor and EDTA. Protein concentration was determined using the Bradford assay. 80 μg of protein lysates isolated from each treatment conditions and reaction mix (HE buffer (100 mM HEPES pH 7.2, 5 mM EDTA), 20 μM Trx, 1.7 mM insulin, 10 mM β-NADPH) were added to the 96-well plate and incubated for 1 h at 37 °C. The reaction was stopped by adding stop buffer containing 6 M guanidine hydrochloride, 50 mM Tris, and 10 mM DTNB (Sigma, UK), with a final pH of 8.0. The plate was read at room temperature using a BMG Fluostar Optima Microplate Reader at 412 nm wavelength. The TrxR activity was expressed as the percentage of control, no drug-treated.

In a further data set the test system is breast cancer lines. More on the design: method as in PMID 31366901. Conditions: cited from earlier work.
The test system of another data set is renal cancer lines. Further details: method as in PMID 28810535. Conditions: cited from earlier work.
A further data set deals with breast cancer cell lines. In words: Cell proliferation assay, stated across all cell lines. Conditions: 400–600 nM, 48 h. Type of data set: cell-based, human. As to the method:
1 × 10^5 cells (2 × 10^5 for T47D’s) were seeded, in triplicate, in 6-well plates and incubated overnight before being treated with IQ9 (0–5000 nM) or doxorubicin (400–600 nM) (positive control and comparator). Total cells were counted after 48 h using a haemocytometer. The total cell count in drug treatment wells was normalised as a percentage of the total cells in vehicle control wells.

Consider `O=c1[nH]cc(F)c(=O)[nH]1` [5-FU, 5-fluorouracil], for which, in data set [1], the half-life entry is “less than 20 min”.
`Cn1c(/C=C/CO)c(CO)c2c1C(=O)C=C(N1CC1)C2=O` [EO9]: the clearance entry in data set [2] is listed as “rapid clearance”.
As to `CC(=O)OC[C@H]1O[C@@H]([S-])[C@H](OC(C)=O)[C@@H](OC(C)=O)[C@@H]1OC(C)=O.CCP(CC)CC.[Au+]` [auranofin, reference compound], the “decrease in TrxR activity” value at TrxR (4 h, across all cell lines) is reported as 70–100%. In addition, the “inhibition of TrxR activity” value is “approximately 80%” against TrxR (MDA-MB-231) and 10% against TrxR (T47D, compared to control).
With `COc1cc(/C=C/C(=O)CC(=O)/C=C/c2ccc(O)c(OC)c2)ccc1O` [curcumin], the SER in the data set on breast cancer lines is on record as 1.38–1.78; with renal cancer lines, 1.42.
Take `COc1cccc2c1C(=O)c1c(O)c3c(c(O)c1C2=O)C[C@@](O)(C(=O)CO)C[C@@H]3O[C@H]1C[C@H](N)[C@H](O)[C@H](C)O1` [doxorubicin]: in the data set with breast cancer cell lines, the “decrease in cell number” value is 50–70%.
